Literature values, collected in patent publication US12336999B2, “Modified release formulations of 2-[3-[4-amino-3-(2-fluoro-4-phenoxy-phenyl) pyrazolo[3,4-d] pyrimidin-1-yl]piperidine-1-carbonyl]-4-methyl-4-[4-(oxetan-3-yl) piperazin-1-yl]pent-2-enenitrile” (Principia Biopharma Inc., priority 2016, dated 2025).
Where two headings read alike, the source gives them in different places.

C=CC(=O)N1CCC[C@@H](n2nc(-c3ccc(Oc4ccccc4)cc3)c3c(N)ncnc32)C1 [ibrutinib]
bioavailability as determined by AUC (administered intraduodenally): 100% | bioavailability as determined by AUC (direct oral administration): 21%
